Results published in US20130345257A1, “COMPOSITION FOR LUPUS NEPHRITIS AND METHODS OF MAKING AND USING THE SAME” (The Regents of the University of California, priority 2012, published 2013).

Legend:
[1] = test system: CD4+ regulatory T cells (CD4+ Foxp3+) in PBMC; test: CD4+ Tregs within PBMC of treated mice; format: in vivo, mouse; settings: LAQ 1 or 25 mg/kg; compared to the other groups
Text: FIG. 7 depicts an exemplary embodiment: A) illustrates gating technique used to identify CD4+ regulatory T cells (CD4+ Tregs), which are shown as the dotted cloud inside the box insert and also labeled as CD4+ Foxp3+.

[2] = test system: CD3/28-stimulated CD4^+CD25^− T cell proliferation; test: T cell suppression assay and function of MDSC sorted from spleens of treated mice; format: cell-based, mouse; settings: data not shown
Method: Single cell suspensions of splenocytes or kidney cells were prepared using cell strainers (Fisher), followed by red blood cell lysis. Kidney lymphocytes were separated from connective tissue by centrifugation (15 minutes at 400g) in 30% Percoll (GE Healthcare). CD4^+CD25^− cells from spleen and kidney were isolated using the CD4^+CD25^+ regulatory T cell isolation kit according to manufacturer's protocol (Miltenyi). CD11b+ cells were isolated using EasySep mouse CD11b positive selection kit (StemCell Technologies), surface stained for Ly6C and Ly6G prior to sorting myeloid-derived suppressor cells (MDSC) using FACSAria II. Populations were >95% pure by FACS analysis. CD4^+CD25^− cells were labelled with 5 µM CFSE and stimulated with Dynabeads mouse T-cell activator CD3/CD28 (Invitrogen). Stimulated CD4^+CD25^− cells (4×10^4) were co-cultured with monocytic-MDSC(CD11b^+Ly6C^+Ly6G^−) or granulocytic-MDSC(CD11b^+Ly6C^+Ly6G^+) at a 1:1 ratio. Proliferation of CD4^+ cells was assayed after 4 days of incubation at 37° C., 5% CO2 by flow cytometry.

[3] = test system: MS patients; settings: compared to placebo; cited from earlier work

CCN(C(=O)c1c(O)c2c(Cl)cccc2n(C)c1=O)c1ccccc1 [LAQ, 5-chloro-N-ethyl-4-hydroxy-1-methyl-2-oxo-N-phenyl-1,2-dihydroquinoline-3-carboxamide]
Percentage of CD4+ Tregs within PBMC [1]: significantly higher percent | Production of arginase and reactive oxygen species (MDSC) [2]: not affected | New MRI lesions in the brains of patients with RRMS [3]: significant reduction
